Laboratory results from patent US20240092835A1, “NOVEL PEPTIDES CAPABLE OF ALTERING NK CELL ACTIVITY” (Massachusetts Institute of Technology, priority 2022, published 2024).
Where no end group is shown, it is not given here.

Key:
NKG2A−/NKG2C− NK cells = assay: NK cell activation markers in control NKG2A-/NKG2C- NK cells incubated with peptide and K562 expressing HLA-E; format: cell-based, human; conditions: Trial 6
Method in brief: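 Human myelogenous leukemia K562 cells displaying HLA-E carry the test peptides (human or HCMV origin) and are presented to NK cells; surface activation markers are scored by percent positive cells.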

CD94/NKG2A = CD94/NKG2A (Homo sapiens, UniProt P26715+Q13241); assay: Steady-state surface plasmon resonance of peptide-HLA-E complex with CD94/NKG2A; format: binding; conditions: for Binding of peptide-HLA-E complexes to CD94/NKG2A normalized to a theoretical Rmax: steady-state SPR
CD94/NKG2A, sequence (P26715 94-233 limits assumed): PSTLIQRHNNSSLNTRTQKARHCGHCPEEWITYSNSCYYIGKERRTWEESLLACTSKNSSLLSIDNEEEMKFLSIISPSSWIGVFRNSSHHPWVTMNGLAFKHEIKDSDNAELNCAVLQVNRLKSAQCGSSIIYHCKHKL
CD94/NKG2A, sequence (Q13241 32-179 limits assumed): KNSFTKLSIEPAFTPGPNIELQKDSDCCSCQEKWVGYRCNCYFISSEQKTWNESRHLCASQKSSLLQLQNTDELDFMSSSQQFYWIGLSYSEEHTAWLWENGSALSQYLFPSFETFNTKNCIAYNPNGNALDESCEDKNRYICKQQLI
Procedure: (§1) Binding affinity of novel peptides linked to HLA-E was determined using surface plasmon resonance (SPR), a methodology used to study protein-protein interactions (Tables 15-19). The peptide-HLA-E complex (generated as a single chain trimer) was immobilized on the sensor chip surface and CD94/NKG2A or CD94/NKG2C were flowed over. Steady-state surface plasmon resonance experiments were performed with a Biacore T200 instrument. CD94/NKG2x in HBS-EP+ buffer was injected as analyte in a concentration range of 0.1 μM to 102.4 μM and flow rate of 10 μL/min at 25° C. Data was fit with Prism 9.4 (GraphPad Software Inc; San Diego CA) to a “one site, specific binding” model. Series S CM5 chips were coupled to neutravidin and utilized. Biotinylated pMHC was immobilized at approximately 400 RU. KD values calculated by Biacore software are reported. Rmax, fit values were calculated by Biacore software. Rmax, theoretical values were calculated using the analyte/ligand mass ratio (0.66) multiplied by the amount of ligand coupled to the chip.

CD94/NKG2C = CD94/NKG2C (Homo sapiens, UniProt P26717+Q13241); assay: Steady-state surface plasmon resonance of peptide-HLA-E complex with CD94/NKG2C; format: binding; conditions: for Binding of peptide-HLA-E complexes to CD94/NKG2C normalized to a theoretical Rmax: steady-state SPR
CD94/NKG2C, sequence (P26717 94-231 limits assumed): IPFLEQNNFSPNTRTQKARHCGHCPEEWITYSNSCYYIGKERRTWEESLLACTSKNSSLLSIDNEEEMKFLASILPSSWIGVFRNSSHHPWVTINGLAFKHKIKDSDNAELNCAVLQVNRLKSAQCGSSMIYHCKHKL
CD94/NKG2C, sequence (Q13241 32-179 limits assumed): as the sequence (Q13241 32-179 limits assumed) above
Procedure: as §1

TGPWRSLWI [human3, TGPWRSLWI]
percentage CCL3+ NK cells (NKG2A−/NKG2C− NK cells): 26.5% | percentage CD107+ NK cells (NKG2A−/NKG2C− NK cells): 18.6% | percentage TNF+ NK cells (NKG2A−/NKG2C− NK cells): 4.18% | percentage of IFNG+ NK cells (NKG2A−/NKG2C− NK cells): 8.37% | binding of peptide-HLA-E complex to CD94/NKG2A normalized to a fitted Rmax (CD94/NKG2A; CD94/NKG2A concentration 0 μM): 0.013 | binding of peptide-HLA-E complex to CD94/NKG2A normalized to a fitted Rmax (CD94/NKG2A; CD94/NKG2A concentration 0.1 μM): 0.015 | binding of peptide-HLA-E complex to CD94/NKG2A normalized to a fitted Rmax (CD94/NKG2A; CD94/NKG2A concentration 0.2 μM): 0.019 | binding of peptide-HLA-E complex to CD94/NKG2A normalized to a fitted Rmax (CD94/NKG2A; CD94/NKG2A concentration 0.4 μM): 0.030 | binding of peptide-HLA-E complex to CD94/NKG2A normalized to a fitted Rmax (CD94/NKG2A; CD94/NKG2A concentration 0.8 μM): 0.051 | binding of peptide-HLA-E complex to CD94/NKG2A normalized to a fitted Rmax (CD94/NKG2A; CD94/NKG2A concentration 1.6 μM): 0.086 | binding of peptide-HLA-E complex to CD94/NKG2A normalized to a fitted Rmax (CD94/NKG2A; CD94/NKG2A concentration 3.2 μM): 0.145 | binding of peptide-HLA-E complex to CD94/NKG2A normalized to a fitted Rmax (CD94/NKG2A; CD94/NKG2A concentration 6.4 μM): 0.231 | binding of peptide-HLA-E complex to CD94/NKG2A normalized to a fitted Rmax (CD94/NKG2A; CD94/NKG2A concentration 12.8 μM): 0.336 | binding of peptide-HLA-E complex to CD94/NKG2A normalized to a fitted Rmax (CD94/NKG2A; CD94/NKG2A concentration 25.6 μM): 0.472 | binding of peptide-HLA-E complex to CD94/NKG2A normalized to a fitted Rmax (CD94/NKG2A; CD94/NKG2A concentration 51.2 μM): 0.639 | binding of peptide-HLA-E complex to CD94/NKG2A normalized to a fitted Rmax (CD94/NKG2A; CD94/NKG2A concentration 102.4 μM): 0.827 | Binding of peptide-HLA-E complexes to CD94/NKG2A normalized to a theoretical Rmax (CD94/NKG2A; CD94/NKG2A analyte concentration 0.000 μM): 0.004 | Binding of peptide-HLA-E complexes to CD94/NKG2A normalized to a theoretical Rmax (CD94/NKG2A; CD94/NKG2A analyte concentration 0.100 μM): 0.005 | Binding of peptide-HLA-E complexes to CD94/NKG2A normalized to a theoretical Rmax (CD94/NKG2A; CD94/NKG2A analyte concentration 0.200 μM): 0.006 | Binding of peptide-HLA-E complexes to CD94/NKG2A normalized to a theoretical Rmax (CD94/NKG2A; CD94/NKG2A analyte concentration 0.400 μM): 0.009 | Binding of peptide-HLA-E complexes to CD94/NKG2A normalized to a theoretical Rmax (CD94/NKG2A; CD94/NKG2A analyte concentration 0.800 μM): 0.015 | Binding of peptide-HLA-E complexes to CD94/NKG2A normalized to a theoretical Rmax (CD94/NKG2A; CD94/NKG2A analyte concentration 1.600 μM): 0.026 | Binding of peptide-HLA-E complexes to CD94/NKG2A normalized to a theoretical Rmax (CD94/NKG2A; CD94/NKG2A analyte concentration 3.200 μM): 0.044 | Binding of peptide-HLA-E complexes to CD94/NKG2A normalized to a theoretical Rmax (CD94/NKG2A; CD94/NKG2A analyte concentration 6.400 μM): 0.070 | Binding of peptide-HLA-E complexes to CD94/NKG2A normalized to a theoretical Rmax (CD94/NKG2A; CD94/NKG2A analyte concentration 12.800 μM): 0.102 | Binding of peptide-HLA-E complexes to CD94/NKG2A normalized to a theoretical Rmax (CD94/NKG2A; CD94/NKG2A analyte concentration 25.600 μM): 0.143 | Binding of peptide-HLA-E complexes to CD94/NKG2A normalized to a theoretical Rmax (CD94/NKG2A; CD94/NKG2A analyte concentration 51.200 μM): 0.194 | Binding of peptide-HLA-E complexes to CD94/NKG2A normalized to a theoretical Rmax (CD94/NKG2A; CD94/NKG2A analyte concentration 102.400 μM): 0.250 | binding of peptide-HLA-E complex to CD94/NKG2C normalized to a fitted Rmax (CD94/NKG2C; CD94/NKG2C concentration 0 μM): 0.006 | binding of peptide-HLA-E complex to CD94/NKG2C normalized to a fitted Rmax (CD94/NKG2C; CD94/NKG2C concentration 0.1 μM): 0.008 | binding of peptide-HLA-E complex to CD94/NKG2C normalized to a fitted Rmax (CD94/NKG2C; CD94/NKG2C concentration 0.2 μM): 0.007 | binding of peptide-HLA-E complex to CD94/NKG2C normalized to a fitted Rmax (CD94/NKG2C; CD94/NKG2C concentration 0.4 μM): 0.011 | binding of peptide-HLA-E complex to CD94/NKG2C normalized to a fitted Rmax (CD94/NKG2C; CD94/NKG2C concentration 0.8 μM): 0.016 | binding of peptide-HLA-E complex to CD94/NKG2C normalized to a fitted Rmax (CD94/NKG2C; CD94/NKG2C concentration 1.6 μM): 0.026 | binding of peptide-HLA-E complex to CD94/NKG2C normalized to a fitted Rmax (CD94/NKG2C; CD94/NKG2C concentration 3.2 μM): 0.044 | binding of peptide-HLA-E complex to CD94/NKG2C normalized to a fitted Rmax (CD94/NKG2C; CD94/NKG2C concentration 6.4 μM): 0.078 | binding of peptide-HLA-E complex to CD94/NKG2C normalized to a fitted Rmax (CD94/NKG2C; CD94/NKG2C concentration 12.8 μM): 0.130 | binding of peptide-HLA-E complex to CD94/NKG2C normalized to a fitted Rmax (CD94/NKG2C; CD94/NKG2C concentration 25.6 μM): 0.219 | binding of peptide-HLA-E complex to CD94/NKG2C normalized to a fitted Rmax (CD94/NKG2C; CD94/NKG2C concentration 51.2 μM): 0.353 | binding of peptide-HLA-E complex to CD94/NKG2C normalized to a fitted Rmax (CD94/NKG2C; CD94/NKG2C concentration 102.4 μM): 0.537 | Binding of peptide-HLA-E complexes to CD94/NKG2C normalized to a theoretical Rmax (CD94/NKG2C; CD94/NKG2C analyte concentration 0 μM): 0.002 | Binding of peptide-HLA-E complexes to CD94/NKG2C normalized to a theoretical Rmax (CD94/NKG2C; CD94/NKG2C analyte concentration 0.1 μM): 0.003 | Binding of peptide-HLA-E complexes to CD94/NKG2C normalized to a theoretical Rmax (CD94/NKG2C; CD94/NKG2C analyte concentration 0.2 μM): 0.003 | Binding of peptide-HLA-E complexes to CD94/NKG2C normalized to a theoretical Rmax (CD94/NKG2C; CD94/NKG2C analyte concentration 0.4 μM): 0.004 | Binding of peptide-HLA-E complexes to CD94/NKG2C normalized to a theoretical Rmax (CD94/NKG2C; CD94/NKG2C analyte concentration 0.8 μM): 0.006 | Binding of peptide-HLA-E complexes to CD94/NKG2C normalized to a theoretical Rmax (CD94/NKG2C; CD94/NKG2C analyte concentration 1.6 μM): 0.010 | Binding of peptide-HLA-E complexes to CD94/NKG2C normalized to a theoretical Rmax (CD94/NKG2C; CD94/NKG2C analyte concentration 3.2 μM): 0.017 | Binding of peptide-HLA-E complexes to CD94/NKG2C normalized to a theoretical Rmax (CD94/NKG2C; CD94/NKG2C analyte concentration 6.4 μM): 0.030 | Binding of peptide-HLA-E complexes to CD94/NKG2C normalized to a theoretical Rmax (CD94/NKG2C; CD94/NKG2C analyte concentration 12.8 μM): 0.050 | Binding of peptide-HLA-E complexes to CD94/NKG2C normalized to a theoretical Rmax (CD94/NKG2C; CD94/NKG2C analyte concentration 25.6 μM): 0.084 | Binding of peptide-HLA-E complexes to CD94/NKG2C normalized to a theoretical Rmax (CD94/NKG2C; CD94/NKG2C analyte concentration 51.2 μM): 0.135 | Binding of peptide-HLA-E complexes to CD94/NKG2C normalized to a theoretical Rmax (CD94/NKG2C; CD94/NKG2C analyte concentration 102.4 μM): 0.205
